Test results taken from patent US20120237503A1, “Screening Method and Therapy with Agonists of DDAH I” (UCL BUSINESS PLC, priority 2009, published 2012).
Entries after “also recorded” stand apart in the source; their conditions may differ.

Legend:
BDL rats = test: Direct portal pressure measurement in bile duct ligated (BDL) rats; format: in vivo, rat
Source text: (§1) These experiments utilised an established animal model of cirrhosis, the bile duct ligated (BDL) rat. BDL rats may be generated by methods known in the art. For example, male Sprague-Dawley rats (200-250 g) may be used for this procedure. Following anaesthetisation, a mid-line laparotamy may be performed, the bile duct exposed, triply ligated with 4.0 silk suture, and severed between the second and third ligature. The wound is then closed in layers with absorbable suture, and the animal allowed to recover in a quiet room before being returned to the animal storage facility.
Three groups of rats were used in these experiments, BDL rats treated with vehicle, BDL rats treated with the anti-TNF monoclonal antibody infliximab, and sham treated rats.
Four weeks after BDL or sham surgery in Sprague-Dawley rats (n=14), BDL rats were gavaged with 5 mg/kg of the FXR agonist INT-747 (6-ethyl chenodeoxycholic acid, Intercept Pharmaceuticals Inc.) in vehicle (corn oil) for 5 days or with vehicle alone.
(§2) After 5 days of treatment rats underwent direct portal pressure assessment and were then sacrificed, and plasma and liver tissue collected for analysis. eNOS activity was determined radiometrically by the conversion of labelled radioactive arginine to citrulline. Protein expression for eNOS, iNOS, DDAH-1, and DDAH-2 were measured by standard Western Blotting techniques. Liver biopsies were evaluated for histopathology with H+E, Van Giesen and reticulin stains.
This method, termed ‘hydrodynamic gene therapy’, was used to determine the effect of transduction of DDAH-1 in BDL rats on portal pressure.
A plasmid containing human DDAH-1 cDNA was injected via a branch of the jugular vein into BDL or sham rodents produced as above. A control plasmid containing GFP was used as a control for the intervention in BDL animals. The animals underwent direct portal pressure measurement at 48 hours post intervention and plasma and tissue was collected for analysis of liver DDAH-1 mRNA (rtPCR) and protein expression (western blotting), as well as routine histology and biochemistry.

[1] = test system: patients with acute alcoholic hepatitis; conditions: systemic infliximab in association with prednisolone; cited from earlier work
ADMA = test: Liver tissue ADMA concentration in BDL rats; format: in vivo, rat; conditions: BDL rats + infliximab vs BDL vehicle
Source text: as §1
ADMA, SDMA and arginine were measured using fragmentation specific stable isotope dilution electrospray tandem mass spectrometry. In brief, samples de-proteinized with deuterated ADMA, SDMA and arginine, were chromatographed (acetonitrile:water, 1:1, with 0.025% formic acid) on a Teicoplanin guard column 10 mm×2.1 mm ID (Chirobiotic T, ASTEC Ltd, Congleton, UK), and analysed using a SCIEX API4000 (Applied Biosystems, Warrington, UK) in positive ion multiple reaction monitoring mode.

DDAH-I = test: Hepatic DDAH-I protein expression in BDL rats; format: in vivo, rat; conditions: BDL rats + infliximab vs BDL vehicle and sham
Source text: as §1
Extracts containing equal amounts of protein were denatured and separated on 4-12% NuPAGE Bis-Tris Gels and blotted on to PVDF membranes (Invitrogen, UK). […] The bands were visualized using an enhanced ECL detection kit and quantified by densitometry. Loading accuracy was evaluated via membrane rehybridization with antibodies against mouse and rabbit anti-α tubulin (1:1000; upstate and Cell Signaling Technology, respectively).
as §2, with “Liver biopsies were evaluated for histopathology with H+E, Van Giesen and reticulin stains.” left out

eNOS = test: Hepatic eNOS activity (conversion of labelled arginine to 14C-citrulline) in BDL rats; format: in vivo, rat; conditions: BDL rats + infliximab vs BDL vehicle and sham
Method: FIG. 1 reports on the 14C-citrulline counts per minute per milligram of protein. This is a measure of eNOS activity. Experiments were carried out in bile-duct ligated (BDL) or sham treated rats. The bile duct ligated rats were treated with either infliximab (BDL+infliximab) or a vehicle (BDL).
as §1, §2

Row | Molecule | reduction in portal pressure (BDL rats; BDL rats, INT-747 5 mg/kg gavage for 5 days, compared to BDL+vehicle, p<0.01) [%] | severe infections [1] | ADMA levels in liver tissue (ADMA) | portal pressure (BDL rats; BDL cirrhotic rats after infliximab, BDL 14±0.7, sham 5.5±0.3 mmHg) [mmHg] | reduction in portal pressure (BDL rats; BDL rats + infliximab compared with BDL rats (vehicle / iso-volumetric saline)) | reduction in portal pressure (BDL rats; BDL rats + infliximab compared with BDL rats (vehicle / iso-volumetric saline), listed as Infliximab) | DDAH-I expression in liver (DDAH-I) | DDAH-I expression in liver (DDAH-I; listed as Infliximab) | eNOS activity (14C-citrulline counts per minute per milligram of protein) (eNOS)
1 | CC[C@H]1[C@@H](O)[C@@H]2[C@H](CC[C@]3(C)[C@@H]([C@H](C)CCC(=O)O)CC[C@@H]23)[C@@]2(C)CC[C@@H](O)C[C@@H]12 [INT-747, 6-ethyl chenodeoxycholic acid] | 30 | – | – | – | – | – | – | – | –
2 | infliximab: anti-TNF monoclonal antibody infliximab | – | high level of severe infections | substantially reduced; also recorded: reduction | 9.5±0.6 | greater than 33% | more than 30% | restored towards sham levels; also recorded: significant increase | restored towards sham levels | restores eNOS activity towards similar levels to those seen in the sham animals; also recorded: Increased
